These results are taken from PMC5917010, “Structural basis for GPR40 allosteric agonism and incretin stimulation” (Nature Communications, 2018).

Like-named read-outs stand apart in the source and are kept apart here.

One data set has as its target T1, Mouse GPR120 (Mus musculus, UniProt Q7TMA4).
T1 sequence (Q7TMA4 1-361): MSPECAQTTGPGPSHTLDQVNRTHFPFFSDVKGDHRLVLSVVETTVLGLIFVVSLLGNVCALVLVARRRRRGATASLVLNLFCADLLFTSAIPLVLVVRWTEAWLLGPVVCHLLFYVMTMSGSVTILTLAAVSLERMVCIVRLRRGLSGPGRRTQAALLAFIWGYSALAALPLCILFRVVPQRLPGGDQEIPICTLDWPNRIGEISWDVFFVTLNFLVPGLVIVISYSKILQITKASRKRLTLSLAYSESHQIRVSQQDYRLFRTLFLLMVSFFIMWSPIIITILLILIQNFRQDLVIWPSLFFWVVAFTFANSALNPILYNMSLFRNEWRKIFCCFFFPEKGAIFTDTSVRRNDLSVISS
In words: Mouse GPR120 b-arrestin. The format is cell-based. The settings on record: Supplementary Table 1.

The test system of the next data set is wild type C57BL/6 mice. In words: Oral glucose tolerance test (OGTT) in wild type C57BL/6 mice. The format is in vivo, mouse. The method, then:
Eight to thirteen week old male C57BL/6 or KO mice were used. The day before the study, at 1600 hours, animals were transferred into clean cages and food was removed. The following morning (~0800 hours), mice were randomized by block randomization to treatment groups (N = 5–7 per group) so each group had similar mean and standard deviation of body weight and blood glucose. […] Animals were dosed with vehicle (0.5% MC/0.25% Tween-80) or the test article by oral gavage. Group allocations were not blinded from the experimenters who collected the data. After 60 min compound treatment animals were then given an oral gavage of glucose (2 g/kg). At 0, 15, 30, 60, and 120 min post oral glucose, two glucose readings via glucometers were obtained. The average of two glucose readings was reported at each time point. Data were expressed as mean±standard error (s.e.m.). Blood glucose values were analyzed using ANOVA with repeated measures. Cook’s distance was also calculated from linear regression. All animals were included in the analysis with their individual averaged Cook’s distance < 1. Dunnett’s comparison was performed at each time point by R program. Significance is denoted at p < 0.05.

The next data set has as its target hNav1.7 (Homo sapiens, UniProt Q15858). In words: hNav1.7 binding. The settings on record: read-out: hNav1.7 binding Rel IC50.
The target in the next data set is GPR40 L112A (Homo sapiens, UniProt O14842, L112A). Nature of the data set: cAMP accumulation assay, L112A mutant. On the technique in general: cAMP levels reflect the balance of adenylyl cyclase and phosphodiesterase activity.
GPR40 L112A, sequence (O14842 whole entry L112A): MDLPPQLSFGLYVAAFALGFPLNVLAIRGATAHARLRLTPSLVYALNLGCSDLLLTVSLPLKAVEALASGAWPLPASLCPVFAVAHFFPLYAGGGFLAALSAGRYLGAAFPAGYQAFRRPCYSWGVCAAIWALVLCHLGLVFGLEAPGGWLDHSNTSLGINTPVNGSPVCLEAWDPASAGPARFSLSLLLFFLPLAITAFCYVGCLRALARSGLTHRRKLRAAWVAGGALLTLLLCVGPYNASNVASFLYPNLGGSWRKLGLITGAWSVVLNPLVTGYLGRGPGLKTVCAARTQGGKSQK
The next data set has as its target Rat GPR40 (Rattus norvegicus, UniProt Q8K3T4). Nature of the data set: Rat GPR40 b-arrestin. The format is cell-based.
Another data set addresses Mouse GPR40 (Mus musculus, UniProt Q76JU9). Nature of the data set: Mouse GPR40 b-arrestin. Type of data set: cell-based.
The target in the next data set is T2, human GPR40 (A1 site) (Homo sapiens, UniProt O14842).
T2 construct: full length recombinant human GPR40 (GPR40) cDNA; expressed in transfected cells; host or cells: HEK 293, stably transfected; crude cell surface membranes
T2 sequence (O14842 whole entry): as the sequence (O14842 whole entry L112A) above, with A112L counted along it
Nature of the data set: A1 site radioligand binding with [3H]-TAK-875. The method, then:
Crude cell surface membranes were prepared from human embryonic kidney 293 (HEK 293) cells stably transfected (for the wild type) or transiently transfected (for the mutants and corresponding wild type) with full length recombinant human GPR40 (GPR40) cDNA, using differential centrifugation methods.
A1 Site Binding. 10 µL of compound diluted in 100% DMSO and 90 µL of Assay Buffer (50 mM Tris-HCl, pH 7.5, 5 mM CaCl2, 5 mM MgCl2, 0.1% w/v fatty acid-free BSA) were added to a deep 96-well polypropylene assay plate (Beckman Coulter).
Assays were terminated by filtration through GF/C glass fiber filtermats (Perkin Elmer) presoaked in 50 mM Tris–HCl, pH 7.5, using a Mach III cell harvester (TomTec). Filtermats were washed two times with 5 mL of ice-cold 50 mM Tris–HCl, pH 7.5 buffer, dried 1 h in a convection oven at 60 °C and embedded with Meltilex A solid scintillant (Perkin Elmer). Radioactivity was determined as counts per min (cpm) using a Trilux Microbeta plate scintillation counter (Perkin Elmer).

The next data set can be described thus: Dog hepatocyte clearance. Type of data set: in vitro ADME. As to conditions: hepatocytes.
The target of the next data set is T3, human PPARgama (Homo sapiens, UniProt P37231).
T3 sequence (P37231 1-505): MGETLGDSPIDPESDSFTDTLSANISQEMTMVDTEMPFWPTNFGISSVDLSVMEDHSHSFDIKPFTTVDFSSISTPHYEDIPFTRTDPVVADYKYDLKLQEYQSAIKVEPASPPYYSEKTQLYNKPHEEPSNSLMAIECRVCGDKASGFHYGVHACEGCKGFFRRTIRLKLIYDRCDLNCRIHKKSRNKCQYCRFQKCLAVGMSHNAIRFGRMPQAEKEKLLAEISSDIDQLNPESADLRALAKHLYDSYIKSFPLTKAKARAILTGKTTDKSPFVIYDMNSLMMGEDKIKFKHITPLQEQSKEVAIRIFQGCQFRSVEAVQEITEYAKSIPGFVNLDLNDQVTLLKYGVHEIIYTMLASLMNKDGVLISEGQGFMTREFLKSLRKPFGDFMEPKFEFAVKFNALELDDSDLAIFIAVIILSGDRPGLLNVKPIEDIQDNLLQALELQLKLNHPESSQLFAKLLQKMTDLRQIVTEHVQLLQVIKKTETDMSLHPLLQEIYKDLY
Nature of the data set: human PPARgamma binding. As to conditions: Supplementary Table 1.

The test system of another data set is C57Bl/6 mice. Nature of the data set: Incretin secretion assay in C57Bl/6 mice. As to conditions: for plasma PYY level: Fig. 3e; for plasma total GLP-1: wild type C57BL/6 mice. Type of data set: in vivo, mouse. The procedure:
Nine week old male C57Bl/6 mice (Envigo, Indianapolis) were used. The night before the incretin assay, mice were transferred to clean cages and fasted overnight. On the morning of the assay, the mice were weighed and randomized by block randomization into groups based on body weight (N = 6) so each group had similar mean and standard deviation of body weight. […] Animals were dosed with vehicle or the test article by oral gavage. Group allocations were not blinded from the experimenters who collected the data. The mice were sacrificed at 0.5, 1, 2, 4, or 8 h post the compound treatment. Blood was taken by cardiac puncture into EDTA tubes containing DPPIV inhibitor and aprotinin cocktail after CO2 euthanization. The final DPPIV inhibitor concentration was 50 µM and aprotinin was 250 K IU/mL. Blood samples were centrifuged at 3000×g for 5 min and plasma transferred into 96 well plates. Plasma total GLP-1 and active GIP levels were measured by ELISA assays that were developed in-house. Data were expressed as mean±s.e.m. […] Cook’s distance was also calculated from linear regression. All animals were included in the analysis with their individual Cook’s distance < 1. Significance is denoted at p < 0.05.

A word on the EC50: it is the concentration giving half of the maximal effect. A lower EC50 goes with higher potency in that assay. What is called IC50 is the concentration needed to halve the response being measured. Usually Emax stands for the maximal effect, on the per cent scale that the assay sets. Broadly, the Ki is a measure of affinity in units of concentration, obtained from inhibition or displacement. Lower therefore signals higher affinity.

Rat GPR40, sequence (Q8K3T4 whole entry): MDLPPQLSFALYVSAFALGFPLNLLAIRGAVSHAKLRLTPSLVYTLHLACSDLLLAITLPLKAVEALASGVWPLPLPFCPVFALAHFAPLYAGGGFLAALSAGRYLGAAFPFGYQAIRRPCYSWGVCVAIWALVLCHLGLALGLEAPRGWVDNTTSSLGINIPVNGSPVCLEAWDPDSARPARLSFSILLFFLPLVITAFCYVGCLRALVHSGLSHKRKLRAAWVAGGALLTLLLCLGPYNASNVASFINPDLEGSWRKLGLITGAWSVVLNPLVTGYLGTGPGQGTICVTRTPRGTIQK
Mouse GPR40, sequence (Q76JU9 whole entry): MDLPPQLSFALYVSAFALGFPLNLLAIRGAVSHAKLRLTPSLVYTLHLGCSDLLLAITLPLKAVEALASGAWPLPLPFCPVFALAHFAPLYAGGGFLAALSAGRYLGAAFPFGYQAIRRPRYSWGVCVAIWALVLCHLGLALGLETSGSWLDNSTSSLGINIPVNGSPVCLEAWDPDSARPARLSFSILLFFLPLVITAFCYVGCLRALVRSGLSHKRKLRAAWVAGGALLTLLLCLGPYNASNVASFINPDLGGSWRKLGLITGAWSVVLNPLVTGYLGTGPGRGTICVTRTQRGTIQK
hNav1.7, sequence (Q15858 whole entry): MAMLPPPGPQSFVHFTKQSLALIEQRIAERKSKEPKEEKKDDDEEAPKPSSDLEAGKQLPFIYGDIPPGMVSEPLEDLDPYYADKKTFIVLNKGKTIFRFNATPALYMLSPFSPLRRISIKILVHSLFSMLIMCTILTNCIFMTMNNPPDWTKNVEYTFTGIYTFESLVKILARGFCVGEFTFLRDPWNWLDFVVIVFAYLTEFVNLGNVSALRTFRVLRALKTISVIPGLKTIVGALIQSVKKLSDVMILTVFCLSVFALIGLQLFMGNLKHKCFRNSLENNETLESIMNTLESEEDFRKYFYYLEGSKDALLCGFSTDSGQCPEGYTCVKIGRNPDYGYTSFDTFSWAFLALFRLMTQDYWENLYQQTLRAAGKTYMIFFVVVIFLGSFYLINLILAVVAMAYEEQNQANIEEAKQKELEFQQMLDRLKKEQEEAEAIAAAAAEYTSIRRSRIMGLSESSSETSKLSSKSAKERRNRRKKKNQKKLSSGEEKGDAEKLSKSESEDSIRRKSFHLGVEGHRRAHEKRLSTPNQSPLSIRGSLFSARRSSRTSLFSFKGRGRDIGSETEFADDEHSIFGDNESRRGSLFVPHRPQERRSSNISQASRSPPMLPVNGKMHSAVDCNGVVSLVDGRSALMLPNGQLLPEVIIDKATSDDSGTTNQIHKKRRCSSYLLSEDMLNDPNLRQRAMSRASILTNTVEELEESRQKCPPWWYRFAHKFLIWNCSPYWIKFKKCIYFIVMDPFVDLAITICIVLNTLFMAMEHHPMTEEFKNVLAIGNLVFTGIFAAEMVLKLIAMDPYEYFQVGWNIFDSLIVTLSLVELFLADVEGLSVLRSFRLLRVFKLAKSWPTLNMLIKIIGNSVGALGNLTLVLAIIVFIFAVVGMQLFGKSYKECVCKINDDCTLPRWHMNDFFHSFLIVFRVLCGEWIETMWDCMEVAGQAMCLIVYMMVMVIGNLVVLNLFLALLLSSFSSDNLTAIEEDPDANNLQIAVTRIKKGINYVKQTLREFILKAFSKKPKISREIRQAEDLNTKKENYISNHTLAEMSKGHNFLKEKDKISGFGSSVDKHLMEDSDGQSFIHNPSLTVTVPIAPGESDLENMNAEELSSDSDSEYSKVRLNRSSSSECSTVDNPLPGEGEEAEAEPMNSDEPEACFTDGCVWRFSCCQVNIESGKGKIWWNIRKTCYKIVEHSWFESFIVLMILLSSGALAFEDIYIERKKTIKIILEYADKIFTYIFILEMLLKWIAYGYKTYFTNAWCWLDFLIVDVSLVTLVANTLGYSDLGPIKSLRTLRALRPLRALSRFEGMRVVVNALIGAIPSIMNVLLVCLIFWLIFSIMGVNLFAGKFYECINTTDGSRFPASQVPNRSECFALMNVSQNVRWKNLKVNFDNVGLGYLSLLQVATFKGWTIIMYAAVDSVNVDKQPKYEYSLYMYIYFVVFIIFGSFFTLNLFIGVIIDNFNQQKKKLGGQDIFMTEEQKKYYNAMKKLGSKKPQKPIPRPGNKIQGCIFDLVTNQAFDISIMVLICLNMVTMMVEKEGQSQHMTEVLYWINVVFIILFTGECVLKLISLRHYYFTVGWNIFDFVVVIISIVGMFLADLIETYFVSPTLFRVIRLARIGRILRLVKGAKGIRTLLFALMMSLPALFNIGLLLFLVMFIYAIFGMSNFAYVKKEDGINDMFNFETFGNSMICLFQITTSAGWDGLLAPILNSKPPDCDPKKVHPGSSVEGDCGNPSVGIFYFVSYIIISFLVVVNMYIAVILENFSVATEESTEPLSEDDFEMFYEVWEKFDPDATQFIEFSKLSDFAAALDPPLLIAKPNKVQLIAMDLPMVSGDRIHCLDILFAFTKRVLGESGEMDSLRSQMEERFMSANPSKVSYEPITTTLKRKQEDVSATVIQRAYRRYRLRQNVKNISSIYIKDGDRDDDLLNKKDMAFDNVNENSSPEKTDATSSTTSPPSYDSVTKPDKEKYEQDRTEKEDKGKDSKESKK

As to `COc1ccc(C(=O)N(CC(C)(C)C)c2cccc(C)n2)c(N2CCC(c3cc4ccc([C@@H](CC(=O)O)C5CC5)cc4o3)CC2)c1` [compound 1], the EC50 on Mouse GPR120 is above 50000 nM; on GPR40 L112A, above 30000 nM; on Rat GPR40, 2.1 nM; on Mouse GPR40, 1.6 nM. For the same compound, the “glucose excursion in OGTT” value with wild type C57BL/6 mice (various oral doses) is “Dose dependent decreases in glucose excursion”. Besides, on hNav1.7, the IC50 was above 30000 nM. Moreover, the Emax came to 163% on Rat GPR40 and 146% on Mouse GPR40. For the same compound, the Ki on human GPR40 (A1 site) (Supplementary Table 1) is above 5590 nM; at human PPARgama, above 10000 nM. The “effect on [3H]-TAK-875 binding” value on human GPR40 (A1 site) (addition of unlabeled compound, membranes from stably transfected cells) is recorded as “enhanced binding activity”. For the same compound, the “affinity modulation factor (α)” value on human GPR40 (A1 site) (allosteric modulator titration equation, [3H]-TAK-875 binding, Fig. 1a) came to 2.4. Further, the recovery in “Dog hepatocyte clearance” (no ABT, read-out: Dog Hepatocyte Clearance no ABT % Recovery) came to 103%; in “Dog hepatocyte clearance” (with ABT (concentration not stated), read-out: Dog Hepatocyte Clearance ABT % Recovery) it was 92.8%. Also, the hepatocyte CLint in the data set “Dog hepatocyte clearance” (no ABT, read-out: Dog Hepatocyte Clearance no ABT Intrinsic Clearance) was determined as 31.4 µL/min/1e6 cells; in “Dog hepatocyte clearance” (with ABT, read-out: Dog Hepatocyte Clearance ABT Intrinsic Clearance), 19.3 µL/min/1e6 cells. For the same compound, the “plasma PYY level” value in the data set on C57Bl/6 mice is reported as “no effect on plasma PYY level”. For the same compound, the “plasma active GIP concentrations” value in the data set with C57Bl/6 mice (oral gavage, up to 8 h) is listed as “significantly increases plasma active GIP concentrations up to 8 h”. Also, the “plasma total GLP-1 concentrations” value in the data set with C57Bl/6 mice (oral gavage, up to 8 h) is listed as “significantly increases plasma total GLP-1 concentrations up to 8 h”. Moreover, the “plasma total GLP-1” value in the data set on C57Bl/6 mice (oral treatment at 10 mg/kg, 4-hour window) was “sustains an elevated level of plasma total GLP-1”.
As for `Cc1cc(OCCCS(C)(=O)=O)cc(C)c1-c1cccc(COc2ccc3c(c2)OC[C@H]3CC(=O)O)c1` [TAK-875], the EC50 at Mouse GPR120 was above 50000 nM; at Rat GPR40, 36 nM; on Mouse GPR40, 8.6 nM. Moreover, in the data set on wild type C57BL/6 mice (30 and 60 mg kg-1), the “glucose in OGTT” value was “Decreases in glucose”. For the same compound, the Ki at human PPARgama is above 10000 nM. Further, the “plasma PYY level” value with C57Bl/6 mice was “no effect on plasma PYY level”. Also, the “plasma total GLP-1” value in the data set with C57Bl/6 mice (oral treatment at 30 mg/kg) is on record as “no effect on plasma total GLP-1”.
